tested on: Plasmodium falciparum clone from CDC/Indochina III (W-2); test: WRAIR in vitro antimalarial serial dilution assay ([3H]-hypoxanthine incorporation); type: cell-based; details: not given
Text: The Walter Reed Army Institute of Research (WRAIR) in vitro screens for intrinsic antimalarial activity are based on modifications of procedures described in the literature [Desjardins, R. E. et al. (1979) J.D. Antimicrobial Agents and Chemotherapy, 16(6):710-8]; Chulay et al. (1983) [Journal of Infectious Diseases 148(1):148-55]; Milhous, W. K. et al. (1985) [Antimicrobial Agents and Chemotherapy 27(4):525-30]. The system is directed to the assessment of the intrinsic activity against the erythrocytic asexual life cycle (blood schizontocides)]. A minimum of 10 mg of sample is generally submitted for initial testing. Two Plasmodium falciparum clones from CDC/Indochina III (W-2) and CDC/Sierra Leone I (D-6) [Oduola, A. M. et al. (1988) [Experimental Parasitology 67(2):354-60] are used for all assays. W-2 is resistant to chloroquine, quinine and pyrimethamine and susceptible to mefloquine. D-6 is resistant to mefloquine and susceptible to chloroquine, quinine and pyrimethamine.
The clones are maintained in continuous log-phase growth in RPMI-1640 medium supplemented with 6% washed human A+ erythrocytes, 25 mM Hepes, […] NaHCO3 and 10% heat inactivated A+ human plasma or albuMAX™ (lipid-rich bovine serum albumin, GIBCO, Grand Island, N.Y.). All cultures and assays are conducted at 37° C. under an atmosphere of 5% CO2 and 5% O2, with a balance of N2.
The preliminary screen uses D-6 diluted to a 0.2% parasitemia in a 1% hematocrit in folic acid free and p-aminobenzoic acid free RPMI-1640 and albuMAX™ (FF-CM). […] The compound is further diluted to a stock solution to 10 ml with FF-CM. This stock solution is kept at −70° C. until used. The clone is preexposed, in duplicate, at three concentrations (50,000 ng/ml, 5,000 ng/ml and 50 ng/ml) of the test compound for 48 hr in a 96-well microliter plate (MTP) using a Biomek® 1000 automated laboratory workstation (Beckman Instruments, Fullerton, Calif.). Each MTP contains chloroquine-containing controls to assess the relative activity of the unknown compound and to monitor the response of D-6.
After the preincubation, [^3H]-hypoxanthine is added to each well of the MTP to determine if the parasites can still replicate or repair DNA. After 66 hr of total incubation time, the MTP are frozen to lyse the erythrocytes and parasites. The parasite DNA is recovered by harvesting the lysate onto glass-fiber filters using a Mark II cell-harvester (Tomtec, Orange, Conn.). The radioactivity is counted on a 1205 Betaplate™ liquid scintillation counter (Wallac, Turku, Finland).
The serial dilution assay is conducted using the same assay conditions and stock solution of the compound used for the preliminary screen. Both the D-6 and the W-2 clones are used. The compound is diluted two-fold over 11 different concentration ranges with a starting concentration that is based on the preliminary screen. The IC50 is determined by a non-linear logistic dose response analysis (TableCurve™, Jandel Scientific, Corte Madera, Calif.). […] For each assay, the IC50 for each clone is determined against the known antimalarials chloroquine, mefloquine, artemisinin, quinine and pyrimethamine. These control values establish the unknown compound's relative parasite susceptibility profile compared to known antimalarials. IC50s can be similarly determined for drug-resistant isolates/clones from a wide variety of geographic locations.

Compound | antimalarial activity (in words)
O=C(/C=C/c1ccccc1O)c1ccc(O)cc1O [Compound 21] | activity similar to that of hydrazide derivative IV44A
COc1ccc(C(=O)/C=C/c2ccc([N+](=O)[O-])cc2)cc1OC [Compound 24] | poor activity
O=C(C=Cc1ccccc1)n1ccnc1 [Compound 48, cinnamoylimidazole, reference compound] | substantially no activity

same assay, conditions: Plasmodium falciparum, Table I, formula III; W2 clone (CDC/Indochina III); * run: chloroquine 0.23 μM; † run: chloroquine 0.2-0.4 μM

Compound | IC50
CCN(CC)CCCC(C)Nc1ccnc2cc(Cl)ccc12 (stereo not drawn) [Chloroquine, chloroquine, reference compound] | 0.23 µM

same assay, conditions: Plasmodium falciparum, Table II, formula IV; * run: chloroquine 0.2-0.4 μM

Compound | IC50
CCN(CC)CCCC(C)Nc1ccnc2cc(Cl)ccc12 (stereo not drawn) [Chloroquine, chloroquine, reference compound] | 0.2 to 0.4 µM

same assay, conditions: Plasmodium falciparum, Table III, formula V

Compound | IC50
CCN(CC)CCCC(C)Nc1ccnc2cc(Cl)ccc12 (stereo not drawn) [Chloroquine, chloroquine, reference compound] | 0.2 to 0.4 µM

same assay, conditions: Plasmodium falciparum, read-out: WR, IC50 (μM), Table IV, formula VI

Compound | IC50
CCN(CC)CCCC(C)Nc1ccnc2cc(Cl)ccc12 (stereo not drawn) [Chloroquine, chloroquine, reference compound] | 0.23 µM

same assay, conditions: Plasmodium falciparum; similar tests

Compound | IC50
CCN(CC)CCCC(C)Nc1ccnc2cc(Cl)ccc12 (stereo not drawn) [Chloroquine, chloroquine, reference compound] | 0.2 to 0.4 µM

same assay, conditions: Plasmodium falciparum; similar tests; read-out: IC50

Compound | IC50
COc1ccc(C(=O)/C=C/c2cccnc2)c(OC)c1 [Compound 44] | 3.1 µM
Cn1cc(/C=C/C(=O)c2ccc(-n3ccnc3)cc2)c2ccccc21 [Compound 56] | 20 µM

same assay, conditions: Table I, formula III; W2 clone (CDC/Indochina III); * run: chloroquine 0.23 μM; † run: chloroquine 0.2-0.4 μM

Compound | IC50
CCN(CC)CCCC(C)Nc1ccnc2cc(Cl)ccc12 (stereo not drawn) [Chloroquine, chloroquine, reference compound] | 0.2 µM

same assay, conditions: Table I, formula III; W2 clone (CDC/Indochina III); * run: chloroquine 0.23 μM; † run: chloroquine 0.2-0.4 μM; read-out: IC50

Compound | IC50
COc1ccc(C(=O)/C=C/c2cccc(Cl)c2Cl)cc1OC [Compound 2] | 0.39 µM
COc1ccc(C(=O)/C=C/c2ccc(Cl)cc2Cl)c(OC)c1 [Compound 3] | 0.42 µM
COc1ccc(C(=O)/C=C/c2ccc(F)c(F)c2)c(OC)c1 [Compound 4] | 0.47 µM
COc1ccc(C(=O)/C=C/c2ccc(Cl)cc2)c(OC)c1 [Compound 5] | 0.63 µM
COc1ccc(C(=O)/C=C/c2cccc(Cl)c2)c(OC)c1 [Compound 6] | 0.74 µM
COc1ccc(C(=O)/C=C/c2ccc(F)cc2F)c(OC)c1 [Compound 7] | 0.77 µM
O=C(/C=C/c1cc(Cl)cc(Cl)c1)c1ccc(Cl)cc1Cl [Compound 8] | 0.9 µM
COc1ccc(C(=O)/C=C/c2ccccc2OC)c(OC)c1 [Compound 9] | 0.96 µM
COc1ccc(C(=O)/C=C/c2cc(F)ccc2F)c(OC)c1 [Compound 10] | 1.3 µM
COc1ccc(C(=O)/C=C/c2ccc(N(C)C)cc2)c(OC)c1 [Compound 11] | 1.4 µM
COc1ccc(/C=C/C(=O)c2cc(Cl)ccc2Cl)c(OC)c1 [Compound 12] | 1.9 µM
COc1ccc(C(=O)/C=C/c2c(F)cccc2F)cc1OC [Compound 13] | 2 µM
COc1ccc(C(=O)/C=C/c2c(Cl)cccc2Cl)c(OC)c1 [Compound 14] | 2.4 µM
COc1ccc(/C=C/C(=O)c2ccc(Cl)c(Cl)c2)c(OC)c1 [Compound 16] | 3.2 µM
COc1ccc(/C=C/C(=O)c2ccc(OC)cc2OC)c(OC)c1 [Compound 17] | 3.6 µM
O=C(/C=C/c1ccc(Cl)cc1)c1ccc(Cl)cc1Cl [Compound 18] | 3.6 µM
O=C(/C=C/c1ccccc1)c1ccc(O)cc1O [Compound 19] | 3.6 µM
COc1ccc(/C=C/C(=O)c2ccc(Cl)cc2Cl)c(OC)c1 [Compound 20] | 3.8 µM
O=C(/C=C/c1ccccc1O)c1ccc(O)cc1O [Compound 21] | 3.9 µM
COc1ccc(C(=O)/C=C/c2c(OC)cccc2OC)cc1OC [Compound 22] | 4.2 µM
COc1ccc(C(=O)/C=C/c2ccccc2Cl)c(OC)c1 [Compound 23] | 5.8 µM

Compound | IC50
COc1ccc(C(=O)/C=C/c2ccc([N+](=O)[O-])cc2)cc1OC [Compound 24] | 5.9 µM
COc1ccccc1/C=C/C(=O)c1ccccc1O [Compound 25] | 6.9 µM
O=C(/C=C/c1ccc(O)cc1)c1ccc(O)cc1O [Compound 26] | 7.4 µM
COc1ccc(C(=O)/C=C/c2c(Cl)cccc2Cl)cc1OC [Compound 27] | 7.9 µM
COc1ccc(C(=O)/C=C/c2c(F)cccc2F)c(OC)c1 [Compound 28] | 8.1 µM
COc1ccc(C(=O)/C=C/c2c(OC)cccc2OC)c(OC)c1 [Compound 29] | 8.6 µM
COc1ccc(C(=O)/C=C/c2cc(Cl)cc(Cl)c2)cc1OC [Compound 30] | 8.8 µM
O=C(/C=C/c1ccccc1)c1ccc(O)c(O)c1O [Compound 31] | 10.1 µM
COc1ccc(/C=C/C(=O)c2ccc(F)cc2F)c(OC)c1 [Compound 32] | 11.1 µM
O=C(/C=C/c1ccc(Cl)cc1Cl)c1ccc(Cl)c(Cl)c1 [Compound 33] | 14.6 µM
O=C(/C=C/c1ccccc1O)c1ccccc1O [Compound 34] | 14.7 µM
COc1ccc(C(=O)/C=C/c2ccc(F)c(F)c2)cc1OC [Compound 35] | 16.1 µM
COc1ccc(/C=C/C(=O)c2ccccc2O)cc1OC [Compound 36] | 16.4 µM
COc1ccc(C(=O)/C=C/c2ccc(Cl)cc2)cc1OC [Compound 37] | 16.6 µM
COc1ccc(C(=O)/C=C/c2ccc(Cl)cc2Cl)cc1OC [Compound 38] | 19.5 µM
O=C(/C=C/c1ccc(O)cc1)c1ccccc1O [Compound 39] | 23 µM
O=C(/C=C/c1ccc(Cl)cc1)c1ccc(Cl)c(Cl)c1 [Compound 40] | 31.7 µM
O=C(/C=C/c1cccc(O)c1)c1ccccc1O [Compound 41] | 77 µM
COc1ccc(C(=O)/C=C/c2ccc(F)cc2F)cc1OC [Compound 42] | 109 µM
COc1ccc(C(=O)/C=C/c2cc(Cl)cc(Cl)c2)c(OC)c1 [Compound 43] | > 148 µM

same assay, conditions: Table II, formula IV; * run: chloroquine 0.2-0.4 μM

Compound | IC50
CCN(CC)CCCC(C)Nc1ccnc2cc(Cl)ccc12 (stereo not drawn) [Chloroquine, chloroquine, reference compound] | 0.2 µM

same assay, conditions: Table III, formula V; read-out: IC50

Compound | IC50
O=C(/C=C/c1ccc(Cl)cc1Cl)c1ccc(-n2ccnc2)cc1 [Compound 49] | 0.72 µM
O=C(/C=C/c1cc(Cl)cc(Cl)c1)c1ccc(-n2ccnc2)cc1 [Compound 50] | 0.91 µM
O=C(/C=C/c1cccc(Cl)c1Cl)c1ccc(-n2ccnc2)cc1 [Compound 51] | 1.8 µM
O=C(/C=C/c1c(Cl)cccc1Cl)c1ccc(-n2ccnc2)cc1 [Compound 52] | 1.9 µM
O=C(/C=C/c1ccc(F)cc1F)c1ccc(-n2ccnc2)cc1 [Compound 53] | 3.2 µM
O=C(/C=C/c1c(F)cccc1F)c1ccc(-n2ccnc2)cc1 [Compound 54] | 7.8 µM
CN(C)c1ccc(/C=C/C(=O)c2ccc(-n3ccnc3)cc2)cc1 [Compound 55] | 18 µM

same assay, conditions: read-out: IC50

Compound | IC50
COc1ccc(/C=C/C(=O)c2ccccn2)c(OC)c1 [Compound 45] | 4.6 µM
COc1ccc(/C=C/C(=O)c2cccnc2)c(OC)c1 [Compound 46] | 7.2 µM
O=C(/C=C/c1ccc(Cl)c([N+](=O)[O-])c1)c1ccccn1 [Compound 47] | 8.2 µM
O=C(C=Cc1ccccc1)n1ccnc1 [Compound 48, cinnamoylimidazole, reference compound] | > 253 µM

same assay, conditions: similar tests; read-out: IC50

Compound | IC50
COc1ccc(C(=O)/C=C/c2cccc(Cl)c2Cl)c(OC)c1 [Compound 1] | 0.38 µM
COc1ccc(C(=O)/C=C/c2cccc(F)c2F)c(OC)c1 [Compound 15] | 2.8 µM

Source: patent US6548521B1, “Inhibitors of metazoan parasite proteases” (The Regents of the University of California, priority 1992, dated 2003)
